From patent US10538555B2, “Macrocyclic inhibitors of the PD-1/PD-L1 and CD80(B7-1)/PD-L1 protein/protein interactions” (BRISTOL-MYERS SQUIBB COMPANY, priority 2014, dated 2020)
Read-outs that look alike come from different tables or passages of the source. Where a SMILES comes first, the peptide text is derived from it. Bridges are numbered along the chain shown (N, C = ends). [ ]: non-standard residue; d: D form. Morpholine(3S-CO,6,6-Me2) = CC1(C)CN[C@H](C(=O)O)CO1; Morpholine(3S-CO) = O=C(O)[C@@H]1COCCN1; Hyp = O=C(O)[C@@H]1C[C@@H](O)CN1; NMeNle = CCCC[C@H](NC)C(=O)O; Pip = O=C(O)[C@@H]1CCCCN1; NMeA = CN[C@@H](C)C(=O)O; Dab = NCC[C@H](N)C(=O)O; Dap = NC[C@H](N)C(=O)O

Biological target: T1, Human PD-L1/PD-1 (Homo sapiens, UniProt Q9NZQ7)
T1 construct: TVMV protease cleavage site (C); made in house; host or cells: HEK293T cells
T1 sequence (Q9NZQ7 with tags, fused parts or gaps): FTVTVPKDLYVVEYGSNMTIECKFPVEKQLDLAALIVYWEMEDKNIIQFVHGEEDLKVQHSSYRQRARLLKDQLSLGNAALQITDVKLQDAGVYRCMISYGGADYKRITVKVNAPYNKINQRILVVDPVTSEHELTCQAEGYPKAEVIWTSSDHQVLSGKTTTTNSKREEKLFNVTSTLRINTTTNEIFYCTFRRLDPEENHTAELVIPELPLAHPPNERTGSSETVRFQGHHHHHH
Experiment: HTRF Human PD-L1/PD-1 binding assay (PD-1-Ig/PD-L1-His)
Conditions: PD-L1-His 10 nM, PD-1-Ig 20 nM
Description: Methods for Testing the Ability of Macrocyclic Peptides to Compete for the Binding of PD-1 to PD-L1 Using Homogenous Time-Resolved Fluorescence (HTRF) Binding Assays
The ability of the macrocyclic peptides of the present disclosure to bind to PD-L1 was investigated using a PD-1/PD-L1 Homogenous Time-Resolved Fluorescence (HTRF) binding assay.
Homogenous Time-Resolved Fluorescence (HTRF) Assays of Binding of Soluble PD-1 to Soluble PD-L1. Soluble PD-1 and soluble PD-L1 refers to proteins with carboxyl-end truncations that remove the transmembrane-spanning regions and are fused to heterologous sequences, specifically the Fc portion of the human immunoglobuling G sequence (Ig) or the hexahistidine epitope tag (His). All binding studies were performed in an HTRF assay buffer consisting of dPBS supplemented with 0.1% (w/v) bovine serum albumin and 0.05% (v/v) Tween-20. For the PD-1-Ig/PD-L1-His binding assay, inhibitors were pre-incubated with PD-L1-His (10 nM final) for 15 m in 4 μl of assay buffer, followed by addition of PD-1-Ig (20 nM final) in 1 μl of assay buffer and further incubation for 15 m. PD-L1 fusion proteins from either human, cynomolgus macaques, or mouse were used. HTRF detection was achieved using europium crypate-labeled anti-Ig monoclonal antibody (1 nM final) and allophycocyanin (APC) labeled anti-His monoclonal antibody (20 nM final). Antibodies were diluted in HTRF detection buffer and 5 μl was dispensed on top of binding reaction. The reaction was allowed to equilibrate for 30 minutes and signal (665 nm/620 nm ratio) was obtained using an EnVision fluorometer. Additional binding assays were established between PD-1-Ig/PD-L2-His (20 and 5 nM, respectively), CD80-His/PD-L1-Ig (100 and 10 nM, respectively) and CD80-His/CTLA4-Ig (10 and 5 nM, respectively). Competition studies between biotinylated Compound No. 71 and human PD-L1-His were performed as follows. Macrocyclic peptide inhibitors were pre-incubated with PD-L1-His (10 nM final) for 60 minutes in 4 μl of assay buffer followed by addition of biotinylated Compound No. 71 (0.5 nM final) in 1 μl of assay buffer. Binding was allowed to equilibrate for 30 minutes followed by addition of europium crypated labeled Streptavidin (2.5 pM final) and APC-labeled anti-His (20 nM final) in 5 μl of HTRF buffer. The reaction was allowed to equilibrate for 30 m and signal (665 nm/620 nm ratio) was obtained using an EnVision fluorometer.
Recombinant Proteins. Carboxyl-truncated human PD-1 (amino acids 25-167) with a C-terminal human Ig epitope tag [hPD-1 (25-167)-3S-IG] and human PD-L1 (amino acids 18-239) with a C-terminal His epitope tag [hPD-L1([…])-tobacco vein mottling virus protease cleavage site (TVMV)-His] were expressed in HEK293T cells and purified sequentially by rProteinA affinity chromatography and size exclusion chromatography.

[1] = class symbol, read-out: HTRF Human PD-L1/PD-1 Binding Assay IC50 Range

For `CCCC[C@H]1C(=O)N(C)[C@@H](CCCC)C(=O)N[C@@H](CC(=O)O)C(=O)N[C@H](C(=O)NCC(N)=O)CSCC(=O)N[C@@H](Cc2ccc(O)cc2)C(=O)N2CCCC[C@H]2C(=O)N[C@@H](CC(=O)O)C(=O)N2CCC[C@H]2C(=O)N[C@@H](Cc2cnc[nH]2)C(=O)N[C@@H](CCCCN)C(=O)N2C[C@H](O)C[C@H]2C(=O)N[C@@H](Cc2c[nH]c3ccccc23)C(=O)N[C@@H](CCCCN)C(=O)N[C@@H](Cc2c[nH]c3ccccc23)C(=O)N1C` [Example 1259] ({CH2CO}-Y[Pip]DPHK[Hyp]WKW[NMeNle][NMeNle]DCG-NH2; thioether N-14), the IC50 [1] was 1 to 9.9 nM.
`CCCC[C@H]1C(=O)N(C)[C@@H](CCCC)C(=O)N[C@@H](CCC(=O)O)C(=O)N[C@H](C(=O)NCC(N)=O)CSCC(=O)N[C@@H](Cc2ccc(O)cc2)C(=O)N2CCCC[C@H]2C(=O)N[C@@H](CC(=O)O)C(=O)N2CCC[C@H]2C(=O)N[C@@H](Cc2cnc[nH]2)C(=O)N[C@@H](CCC(N)=O)C(=O)N2C[C@H](O)C[C@H]2C(=O)N[C@@H](Cc2c[nH]c3ccccc23)C(=O)N[C@@H](CO)C(=O)N[C@@H](Cc2c[nH]c3ccccc23)C(=O)N1C` [Example 1260] ({CH2CO}-Y[Pip]DPHQ[Hyp]WSW[NMeNle][NMeNle]ECG-NH2; thioether N-14) gave an IC50 [1] of 1 to 9.9 nM.
For `CCCC[C@H]1C(=O)N(C)[C@@H](CCCC)C(=O)N[C@@H](C)C(=O)N[C@H](C(=O)NCC(N)=O)CSCC(=O)N[C@@H](Cc2ccc(O)cc2)C(=O)N2CCCC[C@H]2C(=O)N[C@@H](CC(=O)O)C(=O)N2CCC[C@H]2C(=O)N[C@@H](Cc2cnc[nH]2)C(=O)N[C@@H](CCC(N)=O)C(=O)N2C[C@H](O)C[C@H]2C(=O)N[C@@H](Cc2c[nH]c3ccccc23)C(=O)N[C@@H](CO)C(=O)N[C@@H](Cc2c[nH]c3ccccc23)C(=O)N1C` [Example 1261] ({CH2CO}-Y[Pip]DPHQ[Hyp]WSW[NMeNle][NMeNle]ACG-NH2; thioether N-14), the IC50 [1] was 1 to 9.9 nM.
`CCCC[C@H]1C(=O)N(C)[C@@H](CCCC)C(=O)N[C@@H](CCC(=O)O)C(=O)N[C@H](C(=O)NCC(N)=O)CSCC(=O)N[C@@H](Cc2ccc(O)cc2)C(=O)N2CCCC[C@H]2C(=O)N[C@@H](CC(=O)O)C(=O)N2CCC[C@H]2C(=O)N[C@@H](CN)C(=O)N[C@@H](CCC(=O)O)C(=O)N2C[C@H](O)C[C@H]2C(=O)N[C@@H](Cc2c[nH]c3ccccc23)C(=O)N[C@@H](CCN)C(=O)N[C@@H](Cc2c[nH]c3ccccc23)C(=O)N1C` [Example 1262] ({CH2CO}-Y[Pip]DP[Dap]E[Hyp]W[Dab]W[NMeNle][NMeNle]ECG-NH2; thioether N-14) was tested, and the IC50 [1] was 1 to 9.9 nM.
For `CCCC[C@H]1C(=O)N(C)[C@@H](CCCC)C(=O)N[C@@H](CC(C)C)C(=O)N[C@H](C(=O)NCC(N)=O)CSCC(=O)N[C@@H](Cc2ccc(O)cc2)C(=O)N2CCCC[C@H]2C(=O)N[C@@H](CC(=O)O)C(=O)N2CCC[C@H]2C(=O)N[C@@H](CN)C(=O)N[C@@H](CCC(=O)O)C(=O)N2C[C@H](O)C[C@H]2C(=O)N[C@@H](Cc2c[nH]c3ccccc23)C(=O)N[C@@H](CO)C(=O)N[C@@H](Cc2c[nH]c3ccccc23)C(=O)N1C` [Example 1272] ({CH2CO}-Y[Pip]DP[Dap]E[Hyp]WSW[NMeNle][NMeNle]LCG-NH2; thioether N-14), the IC50 [1] was 1 to 9.9 nM.
`CCCC[C@H]1C(=O)N(C)[C@@H](CCCC)C(=O)N[C@@H](CC(C)C)C(=O)N[C@H](C(=O)NCC(N)=O)CSCC(=O)N[C@@H](Cc2ccc(O)cc2)C(=O)N2CCCC[C@H]2C(=O)N[C@@H](CC(N)=O)C(=O)N2CCC[C@H]2C(=O)N[C@@H](Cc2cnc[nH]2)C(=O)N[C@@H](CCC(N)=O)C(=O)N2C[C@H](O)C[C@H]2C(=O)N[C@@H](Cc2c[nH]c3ccccc23)C(=O)N[C@@H](CO)C(=O)N[C@@H](Cc2c[nH]c3ccccc23)C(=O)N1C` [Example 1273] ({CH2CO}-Y[Pip]NPHQ[Hyp]WSW[NMeNle][NMeNle]LCG-NH2; thioether N-14) showed an IC50 [1] of 1 to 9.9 nM.
`CCCC[C@H]1C(=O)N(C)[C@@H](CCCC)C(=O)N[C@@H](C)C(=O)N[C@H](C(=O)NCC(N)=O)CSCC(=O)N[C@@H](Cc2ccc(O)cc2)C(=O)N2CCNC[C@H]2C(=O)N[C@@H](CC(N)=O)C(=O)N2CCC[C@H]2C(=O)N[C@@H](Cc2cnc[nH]2)C(=O)N[C@@H](CCC(N)=O)C(=O)N2C[C@H](O)C[C@H]2C(=O)N[C@@H](Cc2c[nH]c3ccccc23)C(=O)N[C@@H](CO)C(=O)N[C@@H](Cc2c[nH]c3ccccc23)C(=O)N1C` [Example 1275] showed an IC50 [1] of 1 to 9.9 nM.
`CCCC[C@H]1C(=O)N(C)[C@@H](CCCC)C(=O)N[C@@H](C)C(=O)N[C@H](C(=O)NCC(N)=O)CSCC(=O)N[C@@H](Cc2ccc(O)cc2)C(=O)N2CCCC[C@H]2C(=O)N[C@@H](CC(N)=O)C(=O)N2CCC[C@H]2C(=O)N[C@@H](Cc2cnc[nH]2)C(=O)N[C@@H](CCC(N)=O)C(=O)N2CCNC[C@H]2C(=O)N[C@@H](Cc2c[nH]c3ccccc23)C(=O)N[C@@H](CO)C(=O)N[C@@H](Cc2c[nH]c3ccccc23)C(=O)N1C` [Example 1276] gave an IC50 (read-out: HTRF Human PD-L1/PD-1 Binding Assay IC50) of 468 nM.
`CCCC[C@H]1C(=O)N(C)[C@@H](CCCC)C(=O)N[C@@H](C)C(=O)N[C@H](C(=O)NCC(N)=O)CSCC(=O)N[C@@H](Cc2ccc(O)cc2)C(=O)N2CCCC[C@H]2C(=O)N[C@@H](CC(N)=O)C(=O)N2CCC[C@H]2C(=O)N[C@@H](Cc2cnc[nH]2)C(=O)N[C@@H](CCC(N)=O)C(=O)N2CCOC[C@H]2C(=O)N[C@@H](Cc2c[nH]c3ccccc23)C(=O)N[C@@H](CO)C(=O)N[C@@H](Cc2c[nH]c3ccccc23)C(=O)N1C` [Example 1277] showed an IC50 [1] of 10 to 99.9 nM.
`CCCC[C@H]1C(=O)N(C)[C@@H](CCCC)C(=O)N[C@@H](C)C(=O)N[C@H](C(=O)NCC(N)=O)CSCC(=O)N[C@@H](Cc2ccc(O)cc2)C(=O)N(C)[C@@H](C)C(=O)N[C@@H](CC(N)=O)C(=O)N2CCC[C@H]2C(=O)N[C@@H](Cc2cnc[nH]2)C(=O)N[C@@H](CCC(N)=O)C(=O)N2CCNC[C@H]2C(=O)N[C@@H](Cc2c[nH]c3ccccc23)C(=O)N[C@@H](CO)C(=O)N[C@@H](Cc2c[nH]c3ccccc23)C(=O)N1C` [Example 1278] showed an IC50 [1] of 10 to 99.9 nM.
In the case of `CCCC[C@H]1C(=O)N(C)[C@@H](CCCC)C(=O)N[C@@H](C)C(=O)N[C@H](C(=O)NCC(N)=O)CSCC(=O)N[C@@H](Cc2ccc(O)cc2)C(=O)N(C)[C@@H](C)C(=O)N[C@@H](CC(N)=O)C(=O)N2CCC[C@H]2C(=O)N[C@@H](Cc2cnc[nH]2)C(=O)N[C@@H](CCC(N)=O)C(=O)N2CCOC[C@H]2C(=O)N[C@@H](Cc2c[nH]c3ccccc23)C(=O)N[C@@H](CO)C(=O)N[C@@H](Cc2c[nH]c3ccccc23)C(=O)N1C` [Example 1279], the IC50 [1] is reported as 10 to 99.9 nM.
`CCCC[C@H]1C(=O)N(C)[C@@H](CCCC)C(=O)N[C@@H](C)C(=O)N[C@H](C(=O)NCC(N)=O)CSCC(=O)N[C@@H](Cc2ccc(O)cc2)C(=O)N(C)[C@@H](C)C(=O)N[C@@H](CC(N)=O)C(=O)N2CCOC[C@H]2C(=O)N[C@@H](Cc2cnc[nH]2)C(=O)N[C@@H](CCC(N)=O)C(=O)N2C[C@H](O)C[C@H]2C(=O)N[C@@H](Cc2c[nH]c3ccccc23)C(=O)N[C@@H](CO)C(=O)N[C@@H](Cc2c[nH]c3ccccc23)C(=O)N1C` [Example 1280] ({CH2CO}-Y[NMeA]N[Morpholine(3S-CO)]HQ[Hyp]WSW[NMeNle][NMeNle]ACG-NH2; thioether N-14) was tested, and the IC50 [1] was 10 to 99.9 nM.
`CCCC[C@H]1C(=O)N(C)[C@@H](CCCC)C(=O)N[C@@H](C)C(=O)N[C@H](C(=O)NCC(N)=O)CSCC(=O)N[C@@H](Cc2ccc(O)cc2)C(=O)N2CC(C)(C)OC[C@H]2C(=O)N[C@@H](CC(N)=O)C(=O)N2CCC[C@H]2C(=O)N[C@@H](CN)C(=O)N[C@@H](CCC(N)=O)C(=O)N2C[C@H](O)C[C@H]2C(=O)N[C@@H](Cc2c[nH]c3ccccc23)C(=O)N[C@@H](CO)C(=O)N[C@@H](Cc2c[nH]c3ccccc23)C(=O)N1C` [Example 1281] ({CH2CO}-Y[Morpholine(3S-CO,6,6-Me2)]NP[Dap]Q[Hyp]WSW[NMeNle][NMeNle]ACG-NH2; thioether N-14) showed an IC50 [1] of 1 to 9.9 nM.
